Laboratory results from patent publication US9669060B2, “Compositions for preventing and treating uterine disease” (CORNELL UNIVERSITY, priority 2009, dated 2017).
≈ marks a conversion by molar mass, not a printed value. Like-named read-outs stand apart in the source and are kept apart here.

How the values were obtained:
[1] = test system: Escherichia coli recovered from uterine secretion from Holstein dairy cows (n = 80 isolates); test: Antimicrobial susceptibility assay, MIC by broth microdilution (CLSI); format: cell-based; details: for MIC50 / MIC90: Escherichia coli, 18 hours at 37° C.; for MIC50: MIC that inhibits at least 50% of isolates; for MIC90: MIC that inhibits at least 90% of isolates
Protocol: The MIC determinations were performed by broth microdilution method as described by the Clinical and Laboratory Standards Institute (CLSI, 2008) recommendations. […] The dilutions for each antimicrobial tested ranged from 0.25 μg/ml to 256 μg/ml for all the antibiotics and all tests were performed in duplicates. The cultures were diluted in Mueller-Hinton broth to 10^5 CFU/ml and an aliquot of 200 μl of the diluted culture was added to microtiter plate wells, containing various concentrations of the antimicrobials, to a total volume of 300 μl per well. The assays were carried out in duplicates and the required controls of adequacy of the broth to support the growth of the microorganism and the sterility of the broth done.
In addition to the uterine E. coli isolates tested, the reference strain of E. coli ATCC 25922 was included as quality control for MIC determination, as recommended by the CLSI (CLSI, 2008). The MIC that inhibits at least 50% (MIC50) and at least 90% (MIC90) of the isolates, as well as the minimum and maximum MIC, were also derived.

[2] = test system: Escherichia coli isolated from the uterus of postpartum Holstein dairy cows (57 isolates); test: Kinetic (spectrophotometric) MIC and growth curve test with antimicrobials; format: cell-based; details: for MIC: Escherichia coli, minimum concentration that completely inhibited growth for 2-3 hours after beginning of stationary phase of control, estimated from graphics, read-out: Mean MICs; for Mean OD600: growth curve during 10 hours at 37° C., Mueller-Hinton broth
Text: Growth was periodically assessed spectrophotometrically in a microplate reader (Synergy™ 2, BioTek) at 600 nm. Curves were plotted with average of the duplicates. The results of this kinetic test were statistically analyzed to derive the mean MIC (mMIC) of the isolates for each antimicrobial tested.
A general linear mixed model was used to analyze the effect of the different antibiotic concentrations and bacteriophage MOIs on the growth curve of 57 E. coli isolates and determinate the mean values. The outcome variable was the OD600 of the Mueller-Hinton (BBL™) broth culture, which was modeled as a Gaussian (normally distributed data) variable. The assumption that the residuals were normally distributed was satisfied by visually evaluating the distribution plot of the studentized residuals. The independent variables offered to the model were: treatment (bacteriophage cocktail and all antimicrobials tested) and time (from 1 until 10). The interaction of treatment and time was also included in the model. […] This implies that data points were correlated within each E. coli isolate. To account appropriately for within correlation of the optical density, we modeled the error term by imposing a first-order autoregressive covariance structure. Variables and interaction were considered significant when their P-values<0.05.

E. coli from calves = details: cited from earlier work
uropathogenic E. coli = details: fimH immunization, murine model (Langermann et al., 1997); cited from earlier work

Row | Molecule | isolates resistant (CLSI criteria) [1] | MIC50 [1] [µg/mL] | MIC90 [1] [µg/mL] | MIC [2] [µg/mL] | Mean OD600 [2] | occurrence of ampicillin-resistant E. coli (E. coli from calves; feces of healthy lactating dairy calves (Sawant et al., 2007)) [%] | isolates susceptible [1] [%] | prevalence rate of ceftiofur-resistant E. coli (E. coli from calves; Bradford et al., 1999) [%] | prevalence rate of ceftiofur-resistant E. coli (E. coli from calves; Sawant et al., 2007) [%] | occurrence of ceftiofur-resistant E. coli (E. coli from calves; diarrheic calves (White et al.)) [%] | E. coli isolates resistant to both florfenicol and chloramphenicol (E. coli from calves; diarrheic dairy calves (White et al., 2000)) [%] | prevention of in vivo colonization of the bladder mucosa (uropathogenic E. coli) [%]
1 | CC1(C)S[C@@H]2[C@H](NC(=O)[C@H](N)c3ccccc3)C(=O)N2[C@H]1C(=O)O [Ampicillin, ampicillin] | 33.7% | 16 (≈ 45.8 µM) | 32 (≈ 91.6 µM) | 16 | 0.14 | 48 |  |  |  |  |  | 
2 | CO/N=C(\C(=O)N[C@@H]1C(=O)N2C(C(=O)O)=C(CSC(=O)c3ccco3)CS[C@H]12)c1csc(N)n1 [Ceftiofur, ceftiofur] | 1.2% | 1 (≈ 1.91 µM) | 1 (≈ 1.91 µM) | 16 | 0.05 |  | 98.7 | 11 | 13 | 69 |  | 
3 | O=C(N[C@H](CO)[C@H](O)c1ccc([N+](=O)[O-])cc1)C(Cl)Cl [Chloramphenicol, chloramphenicol] | 100% | 64 (≈ 198 µM) | 128 (≈ 396 µM) | 128 | 0.18 |  |  |  |  |  |  | 
4 | CS(=O)(=O)c1ccc([C@@H](O)[C@@H](CF)NC(=O)C(Cl)Cl)cc1 [Florfenicol, florfenicol] | 100% | 16 (≈ 44.7 µM) | 16 (≈ 44.7 µM) | 16 | 0.10 |  |  |  |  |  | 85 | 
5 | CN[C@@H]1[C@H](O)[C@H](NC)[C@H]2O[C@@]3(O)C(=O)C[C@@H](C)O[C@H]3O[C@@H]2[C@H]1O [Spectinomycin, spectinomycin] | none of them were resistant | 32 (≈ 96.3 µM) | 64 (≈ 193 µM) | 32 | 0.17 |  |  |  |  |  |  | 
6 | [H]/N=C(/N)N[C@H]1[C@H](O)[C@@H](O)[C@H](O[C@@H]2O[C@@H](C)[C@](O)(C=O)[C@H]2O[C@@H]2O[C@@H](CO)[C@H](O)[C@@H](O)[C@@H]2NC)[C@@H](N/C(N)=N\[H])[C@@H]1O [Streptomycin, streptomycin] | none of them were resistant | 8 (≈ 13.8 µM) | 8 (≈ 13.8 µM) | 8 | 0.11 |  |  |  |  |  |  | 
7 | CN(C)[C@@H]1C(O)=C(C(N)=O)C(=O)[C@@]2(O)C(O)=C3C(=O)c4c(O)cccc4[C@@](C)(O)[C@H]3C[C@@H]12 [Tetracycline, tetracycline] |  | 1 (≈ 2.25 µM) | 2 (≈ 4.5 µM) | 2 | 0.05 |  |  |  |  |  |  | 
8 | fimH: fimH adhesin of type 1 pili used for immunization in a murine model (Langermann et al., 1997) |  |  |  |  |  |  |  |  |  |  |  | 99
